Measurements taken from US11779649B2, “Antibodies to PMEL17 and conjugates thereof” (Novartis AG, priority 2018, dated 2023).
Like-named read-outs stand apart in the source and are kept apart here. Positions of bridges follow the written chain, without caps; N, C: chain ends. Non-standard residues stand in square brackets, D forms with d. Residues, ends and D or L forms follow the SMILES beside them. Leu(3R-O(AcLeu(3R-OH))) = CC(=O)N[C@H](C(=O)O[C@H](C(C)C)[C@H](N)C(=O)O)[C@H](O)C(C)C; NMeT = CN[C@H](C(=O)O)[C@@H](C)O; dPhLac = O=C(O)[C@H](O)Cc1ccccc1; NMeA = CN[C@@H](C)C(=O)O; NMeDha = C=C(NC)C(=O)O

Columns and labels:
92.1 uveal melanoma = experiment: Resazurin-based viability assay, 92.1 uveal melanoma cells; assay type: cell-based
[1] = system: MIAPACA pancreatic ductal adenocarcinoma cells; experiment: Resazurin-based viability assay, MIAPACA cells; assay type: cell-based; conditions: Homo sapiens, MIA PaCa-2, WT, 96 or 120 hours, Table 4
Method: 92.1 uveal melanoma and MIAPACA pancreatic ductal adenocarcinoma cells were seeded at low cell density in 96-well plates and treated with increasing concentrations of Compound (A1) or Compound (A2) as indicated. Following drug treatment for 96 or 120 hours, cell viability and proliferation were determined using a resazurin-based viability assay. Briefly, cells were incubated with a resazurin-based solution and color change was detected by absorbance with a spectrophotometer and used as a readout of cell viability. Data presented as mean of 3 independent replicates and relative to PBS-treated cells (control).

92.1 cells = experiment: Annexin V flow cytometry apoptosis assay, 92.1 cells; assay type: cell-based; conditions: 92.1 and MIAPACA cells, FIG. 2
Method: 92.1 and MIAPACA cells were seeded in 96-well plates (5000 cells per well) and treated with increasing concentrations of Compound (A1), Compound (A2), and a fixed dose of Staurosporine (100 nM, positive control) as indicated. Following drug treatment for 96, cells were subjected to fluorescence-activated flow cytometry using an Annexin V antibody conjugated to a fluorescent dye. Data presented as mean of 3 independent replicates.
92.1 cells were seeded in 96-well plates (5000 cells per well) and treated with increasing concentrations of Compound (A1), 3207-(B1) (Isotype control), G4-(B1), and G1-(B1) as indicated. Following drug treatment for 96, cells were subjected to fluorescence-activated flow cytometry using an Annexin V antibody conjugated to a fluorescent dye. Data presented as mean of 3 independent replicates.

GNAQ/11 = experiment: IP1 levels by TR-FRET in 92.1 uveal melanoma cells; assay type: cell-based; conditions: 92.1 cells, overnight treatment, FIG. 3A
Method: (§1) 92.1 uveal melanoma were treated with increasing concentrations of Compound (A1) or Compound (A2) as indicated. Following drug treatment overnight, cells were processed for determination of IP1 levels using TR-FRET (time-resolved fluorescent resonance energy transfer) or protein levels by western-blotting.
92.1 uveal melanoma were treated with DMSO, Compound (A1) (8 nM) and increasing concentrations of Isotype-(B1), anti-PMEL17-(B1) and anti-PMEL17-(B2) ADCs as indicated. Following drug treatment for 2 days, cells were processed for determination of IP1 levels using TR-FRET (time-resolved fluorescent resonance energy transfer). IP1 levels (nM) are presented as mean of 3 independent replicates.

ERK signaling = experiment: Western-blotting of 92.1 cells, ERK signaling; assay type: cell-based; conditions: FIG. 3C
Method: as §1

[2] = Chemical stability of Compound (A2) in three different systems; assay type: physicochemical; conditions: FIG. 5B
Method: (§2) In vitro stability of Compound (A2) was tested in plasma and blood from different species (FIG. 5A). […]

[3] = PK of Compound (A2) in female balb/c mice; assay type: in vivo
Method: as §2

[4] = Stability of Compound (A2), hepatic microsomes, mouse; assay type: in vitro ADME; conditions: intrinsic clearance
Method: as §2

[5] = Stability of Compound (A2), hepatic microsomes, rat; assay type: in vitro ADME; conditions: intrinsic clearance
Method: as §2

[6] = Stability of Compound (A2), hepatic microsomes, human; assay type: in vitro ADME; conditions: intrinsic clearance
Method: as §2

[7] = Stability of Compound (A2), hepatocytes, rat; assay type: in vitro ADME
Method: as §2

[8] = Stability of Compound (A2), hepatocytes, human; assay type: in vitro ADME
Method: as §2

[9] = Stability of Compound (A2), hepatic S9 fraction, mouse; assay type: in vitro ADME; conditions: read-out: Hepatic S9 (+/−NADPH) t½ (converted)
Method: as §2

[10] = Stability of Compound (A2), hepatic S9 fraction, rat; assay type: in vitro ADME
Method: as §2

[11] = Stability of Compound (A2), hepatic S9 fraction, human; assay type: in vitro ADME; conditions: read-out: Hepatic S9 (+/−NADPH) t½ (converted)
Method: as §2

[12] = Stability of Compound (A2), plasma, mouse; assay type: in vitro ADME; conditions: read-out: Plasma t½ (converted)
Method: as §2

[13] = Stability of Compound (A2), plasma, rat; assay type: in vitro ADME; conditions: read-out: Plasma t½ (converted)
Method: as §2

[14] = Stability of Compound (A2), plasma, human; assay type: in vitro ADME; conditions: read-out: Plasma t½ (converted)
Method: as §2

[15] = Stability in buffer at pH 5.6 and in lysosomes; assay type: in vitro ADME; conditions: buffer pH 5.6, lysosomes, 4 h, FIG. 5D
Method: as §2

C=C1C(=O)N[C@@H](C)C(=O)N(C)[C@@H](C)C(=O)N[C@@H]([C@H](OC(=O)[C@@H](NC(C)=O)[C@H](O)C(C)C)C(C)C)C(=O)N(C)[C@@H]([C@@H](C)OC)C(=O)O[C@H](C)[C@H](NC(C)=O)C(=O)O[C@H](Cc2ccccc2)C(=O)N1C [Compound (A2), (R)-1-((3S,6S,9S,12S,18R,21S,22R)-21-acetamido-18-benzyl-3-((R)-1-methoxyethyl)-4,9,10,12,16,22-hexamethyl-15-methylene-2,5,8,11,14,17,20-heptaoxo-1,19-dioxa-4,7,10,13,16-pentaazacyclodocosan-6-yl)-2-methylpropyl (2S,3R)-2-acetamido-3-hydroxy-4-methylpentanoate] (Ac-T[dPhLac][NMeDha]A[NMeA][Leu(3R-O(AcLeu(3R-OH)))][NMeT](Me); ester 1-C)
GI50 (92.1 uveal melanoma; 92.1, GNAQ^Q209L, 96 or 120 hours, Table 4, read-out: GI50): 7.7 nM
GI50 (92.1 uveal melanoma; 92.1 GNAQ^Q209L, Table 1, read-out: GI50 (nM) 92.1GNAQ^Q209L): 22.1 nM
anti-UM activity (92.1 uveal melanoma; 92.1 vs MIAPACA, FIG. 1): potent target-dependent anti-UM activity
GI50 [1]: > 10000 nM
apoptosis (Annexin V) (92.1 cells): induced apoptosis in UM cells in GNAQ/11 dependent manner
IP1 levels (GNAQ/11): reduced IP1 levels
ERK signaling (immunoblots) (ERK signaling): reduced ERK signaling
chemical stability [2]: good chemical stability in three different systems
clearance ([3]; FIG. 5C): high clearance
elimination half-life ([3]; FIG. 5C): short elimination half-life
half-life ([3]; mouse, in vivo, 1 mg/kg iv): 0.4 ± 0.01 h
clearance ([3]; mouse, in vivo, 1 mg/kg iv, read-out: CL): 175 ± 29 mL/min/kg
Hepatic microsomes [4]: 0.107 mL/min/kg
Hepatic microsomes [5]: 0.033 mL/min/kg
Hepatic microsomes [6]: 0.044 mL/min/kg
Hepatocytes (ul/min/10^6 cells) [7]: 8 ul/min/10^6 cells
Hepatocytes (ul/min/10^6 cells) [8]: <4 ul/min/10^6 cells
half-life ([9]; +NADPH): 1.9 h
half-life ([9]; −NADPH): > 2 h
half-life ([10]; hepatic S9 fraction, +NADPH, read-out: Hepatic S9 (+/−NADPH) t½): > 2 h
Hepatic S9 (+/−NADPH) t½ (h) ([10]; −NADPH): >2/>2 h
half-life ([11]; +NADPH): 1.9 h
half-life ([11]; −NADPH): > 2 h
half-life [12]: 2.1 h
half-life [13]: 4.1 h
half-life [14]: 2 h
stability in buffer and lysosomes [15]: stable in buffer at pH 5.6 and in lysosomes over 4 h
